How the values were obtained:
[1] = test system: CD4 T cells from healthy donors; experiment: HLA restriction and FVIII specificity IFN-γ ELISPOT of T cell lines raised with the pool of 18 peptides (four donors); type: cell-based, human; set-up: key to Protein specificty: +: positive T cell responses to both the full-length FVIII protein (protein specificity); settings: for intensity (%): four donors, 87 specific T cell lines in total; for Responding donors (%): four healthy donors, T cell lines amplified with pool of 18 FVIII peptides; for HLA restriction (%) DR: anti-HLA-DR (L243) 10 μg/ml; for Protein specificty: recognition of rFVIII loaded on autologous DCs by peptide-specific T cell lines
Experimental: T cells were incubated with autologous DCs alone (control) or with DCs incubated with rFVIII (0.2 µM), ovalbumin (3 µM), and KLH (1 µM) or PBMCs for FVIII peptides (10 µg/ml) in MultiScreen 96-well plates (Merck Millipore) previously coated with 2.5 µg/mL of anti-human IFN-γ monoclonal antibody (mAb; 1-D1K; Mabtech). The T cell lines and APCs were plated at equal number for both stimulated and unstimulated control conditions. […] The spot number was determined by using the ELISPOT Reader System (Autoimmun Diagnostika, Ebinger, Germany). HLA restriction was assessed using monoclonal antibodies (10 μg/ml) specific to HLA-DP (B7/21), HLA-DQ (SPVL3), or HLA-DR (L243).
Based on the T cell epitope prediction software NetMHCpan4.0 ([23]), we selected 63 20-mer peptides that are predicted for their ability to bind promiscuously, with a percentile score below 10%, at least four HLA class II molecules from a selection of 15 preponderant HLA-DR alleles in our panel (as shown in ST1). The predicted peptides spread all along the full-length FVIII sequence and account for more than 50% of its amino acid coverage. A total of 16 healthy donors with unrelated HLA typing (ST2) were used as sources of T cells to identify FVIII-specific CD4 T cell epitopes. Specific T cell lines were generated by in vitro T cell culture using FVIII and KLH. The peptide specificity of the T cell lines raised against FVIII was assessed by two independent IFN-γ ELISPOT using peptide pools and individual peptides. All donors responded to rFVIII with a total of 409 identified rFVIII-specific T cell lines (Figure 4A). The mean of CD4 T cell precursors was 6.5 cells/M (Figure 4B). Each of the 63 FVIII peptides induced a T cell response in at least one of the donors tested, among the 16 healthy donors tested, with 872 peptide-specific T cell lines identified (Figure 4C). The CD4 T cell epitopes identified were ranked based on their donor coverage capacity (Figure 4D) and response intensity (Figure 4E). Furthermore, 18 out of 63 FVIII T cell epitopes were responsible for 50% of the total T cell response and 100% of the donor coverage. These immunoprevalent epitopes are located in the A1, A3, C1, and C2 domains of the FVIII protein (ST3). Furthermore, four independent healthy donors were used as sources of T cells to characterize the HLA restriction and to assess the reactivity of T cell lines generated with the 18 peptides toward rFVIII. T cell lines were amplified in vitro for 28 days through stimulation with the pool of 18 peptides and then tested through IFN-γ ELISPOT. All four healthy donors tested responded to the pool of 18 FVIII peptides selected, with a total of 87 specific T cell lines identified. Moreover, 16 out of 18 FVIII peptides in the pool generated a specific T cell response among the four donors. A total of 14 of the T cell peptides were tested for recognition of rFVIII-loaded on autologous DCs, and it was confirmed that they were part of the naturally processed FVIII peptides. HLA restriction was assessed by introducing anti-HLA-DR, anti-HLA-DP, and anti-HLA-DQ antibodies. None of the peptides tested was HLA-DQ restricted. Eight peptides were exclusively HLA-DR-restricted, one peptide was HLA-DP, and seven were promiscuously presented on both HLA-DR and HLA-DP molecules (ST4). […] Furthermore, the 18 FVIII peptides selected were ulteriorly tested in an in vitro binding assay to six HLA-DRB1 molecules (as described in ST5).
Four healthy donors were used as the source of CD4 T cells, which were amplified in vitro with the pool of 18 FVIII peptides selected for study. In an initial IFN-γ ELISPOT assay, we screened each of the 18 peptides individually to identify any positive T cell responses to both the full-length FVIII protein (protein specificity) as well as the specific peptide inducing the response. […]

HLA-DRB1*1501 = HLA-DRB1*1501 (Homo sapiens, UniProt P01903+P01911); experiment: Peptide-MHCII competition binding assay; settings: competition ELISA, pH 5.9, peptide 90.000nM – 0.9nM, HLA-DRB1 30 nM, biotinylated peptide 15nM, duplicate wells; ratios below 10 = good binding; reference peptide ENPVVHFFKNIVTPR
Experimental: (§1) Quantitative peptide-MHCII competition binding assays were carried out to determine binding avidities of the 18 20-mer FVIII peptides to 6 HLA-DRB1. Data are presented as ratio between reference peptide IC50/FVIII-peptide IC50 tested. Briefly, non-biotinylated FVIII peptides have been diluted at a concentration of 20 mM in DMSO. 10-µl aliquots of serially diluted (90.000nM – 0.9nM in n-Octyl b-D-Glucopyranoside, 2.5 mg/ml in 1x phosphate buffer, pH 5.9) of non-biotinylated FVIII peptides, were added to duplicate wells of 96-well polypropylene plates. Serially diluted non-FVIII reference peptides known to bind to the specific HLA-DRB1 were added to separate wells as positive controls. Next, the biotinylated peptide at a concentration of 2mM was use to prepare 1000-fold pre-dilution to reach a final concentration of 15nM. The HLA-DRB1 proteins were diluted to 30 nM in n-Octyl β-D-Glucopyranoside, 2.5 mg/ml in 1x phosphate buffer, pH 5.9. […] SA-HRP (diluted 5000x in 1xPBS 0.1% Tween20) was added to each well. The plates were covered and incubated at room temperature for 60 min […] and washed. TMB (100 μl/well) was then added, and the plates were incubated at room temperature for 15-30 min. ELISA stopping solution (0.5M H2SO4) was added and then read on a FLUOstar OPTIMA fluorometer. Sigmoidal binding curves were simulated and IC50 values calculated for the FVIII peptides, based on their competition with the reference peptides for each HLA-DRB1. Data were reported as the ratio between the values of the tested peptide and of the reference peptide. Ratios below 10 correspond to good biding affinity.

HLA-DRB1*0101 = HLA-DRB1*0101 (Homo sapiens, UniProt P01903+P01911, A100R/D57E/F55L/F60I/F76Y/I96L/L162R/M171V/P40L/Q125E/R42F/V115G/Y59C); experiment: Peptide-MHCII competition binding assay; settings: competition ELISA, pH 5.9, peptide 90.000nM – 0.9nM, HLA-DRB1 30 nM, biotinylated peptide 15nM, duplicate wells; ratios below 10 = good binding; reference peptide […]
Experimental: as §1

HLA-DRB1*1101 = HLA-DRB1*1101 (Homo sapiens, UniProt P01903+P01911, A100R/A169T/A87E/I96F/K41T/L162R/M171V/P40S/Q125H/Q178H/Q39Y/Q99D/R42S/S66Y/T262R/V115G/W38E); experiment: Peptide-MHCII competition binding assay; settings: competition ELISA, pH 5.9, peptide 90.000nM – 0.9nM, HLA-DRB1 30 nM, biotinylated peptide 15nM, duplicate wells; ratios below 10 = good binding; reference peptide […]
Experimental: as §1

[2] = percentage of restricted T cell lines, inhibition higher than 50% of ELISPOT count

| Sequence | intensity (%) [1] | Responding donors (%) [1] [%] | HLA restriction (%) DR [1, 2] [%] | Ratio IC50 DRB1*1501 (HLA-DRB1*1501) | Ratio IC50 DRB1*0101 (HLA-DRB1*0101) | Ratio IC50 DRB1*1101 (HLA-DRB1*1101) | HLA restriction (%) DP ([1]; percentage of restricted T cell lines, anti-HLA-DP (B7/21) 10 μg/ml, inhibition higher than 50% of ELISPOT count) [%] | Protein specificty [1] |
| --- | --- | --- | --- | --- | --- | --- | --- | --- |
| KLARLHYSGSINAWSTKEPF [P2068-2087, 20-mer FVIII peptide, C1 domain] | 1,1% | 25 | 100 | 20 | 70.5 | 4.6 |  |  |
| LLTRYLRIHPQSWVHQIALR [P2320-2339, 20-mer FVIII peptide, C2 domain] | 2,3% | 25 | 75 | 0.0 | 1 | 1 | 25 | + |
| YDTVVITLKNMASHPVSLHA [P100-119, 20-mer FVIII peptide, A1 domain] | 8% | 50 | 100 | 0.5 | 226 | 2 |  | + |
